In patent US8492362B1, “5-(E)-Bromovinyl uracil analogues and related pyrimidine nucleosides as anti-varicella zoster virus agents and methods of use” (priority 2011, dated 2013):
Where two headings read alike, the source gives them in different places.

Columns and labels:
VZV-BAC-Luc [1] = details: 36 mg/kg/day subcutaneously from osmotic pumps; cited from earlier work
VZV-BAC-Luc [2] = format: in vivo, Varicella-zoster virus; details: 3 mg/mL in drinking water
[3] = 3 mg/mL in drinking water
VZV = details: Oliver et al., 2008; cited from earlier work
[4] = herpes zoster patients, 125 mg/day; cited from earlier work
VZV-BAC-Luc [5] = format: cell-based, Varicella-zoster virus; details: HFF at 48 hpi, read-out: EC50 in HFF, prodrug study
VZV-BAC-Luc [6] = assay: VZV-BAC-Luc dose-response in human skin organ culture (SOC); details: read-out: EC50 in skin organ culture (SOC), skin explants, Day 6 (6 dpi)
[7] = system: human foreskin fibroblasts (HFFs); assay: Neutral red dye uptake cytotoxicity assay in HFFs; format: cell-based; details: 35 nM
Method: The neutral red (NR) cytotoxicity assay was performed as described previously (Rowe et al.) and is based on the method of (Babich et al., 2002).
To determine the toxicity of L-BHDU in culture, a neutral red dye uptake assay was performed. The amount of dye absorbed is directly proportional to cell number and membrane integrity (Repetto et al., 2008). Primary human foreskin fibroblasts (HFFs) were treated with either 35 nM staurosporine to induce apoptosis, DMSO diluent alone, or 0.1 to 200 μM L-BHDU, refreshed daily. The uptake of neutral red dye was evaluated at 0, 24, 48, and 72 h post treatment. Absorbance values from 6 replicates at each dose were averaged and plotted against treatment time (FIG. 1A). […] In the cultures treated with 200 μM L-BHDU or DMSO at an equivalent diluent concentration, cell viability declined between 48-72 h. […] This substantiates previous reports that L-BHDU caused no cell growth arrest up to 200 μM in HEL 299 cells (human embryonic lung) (Li et al., 2000).

## O=C(O)CP(=O)(O)O [phosphonoacetic acid (PAA), phosphonoacetic acid]
VZV-BAC-Luc [1]
  effect on VZV growth in SCID-Hu model (Rowe et al.): significantly reduced VZV growth

## CC(C)[C@H](N)C(=O)OCCOCn1cnc2c(=O)[nH]c(N)nc21 [valaciclovir, reference compound]
VZV-BAC-Luc [2]
  antiviral effect in SCID-Hu mice: no antiviral effect
VZV-BAC-Luc [2]; n=5
  average VZV growth rate: 0.62±0.05 log10 photons/s/day
VZV-BAC-Luc [2]; listed as VACV
  antiviral effect in SCID-Hu mice: not effective
[3]
  loss of body weight: > 20%
VZV
  effect on VZV replication in SCID-Hu mice: little to no effect

## O=c1[nH]c(=O)n([C@H]2C[C@H](O)[C@@H](CO)O2)cc1/C=C/Br [brivudin, (E)-5-(2-bromovinyl)-2′-deoxyuridine]
[4]
  Cmax (plasma): 1700 ng/mL

## CC(C)C(N)C(=O)OCC1OCC(n2cc(C=CBr)c(=O)[nH]c2=O)O1 (stereo not shown) [valyl derivative]
VZV-BAC-Luc [5]
  EC50: 38 nM
VZV-BAC-Luc [6]
  EC50: 50 nM

## CN[C@@H]1C[C@H]2O[C@@](C)([C@@H]1OC)n1c3ccccc3c3c4c(c5c6ccccc6n2c5c31)C(=O)NC4 [staurosporine, reference compound]
[7]
  cell viability, positive control for cell death: no viable cells were detected
